Measured values taken from patent US20250042880A1 (UNIVERSITY OF KENTUCKY RESEARCH FOUNDATION, priority 2021, published 2025).

Legend:
Pt2377 cells = test: Cell proliferation inhibition assay, Pt2377; type: cell-based; conditions: 120 h; 5 days, viable cells counted
Method: (§1) Cell proliferation inhibition assay-Cell proliferation inhibition assay was performed as previously reported (48). All compounds to be tested were dissolved at 10 mM in DMSO. The cells were seeded into 12-well plates at a density of 40,000 cells per well in 1 mL of culture medium and were cultured overnight at 37° C. Either 1 μL of the compounds or the vehicle control (DMSO) was added to the cells. After 5 days, the medium was removed, and 200 μL of 0.25% trypsin was added. The cells were resuspended in 800 μL phosphate-buffered saline (PBS) and counted with Vi-CELL XR 2.03 (Beckman Coulter, Inc. USA). The ratio R of the number of viable cells in the compound-treated group to the number of viable cells in the DMSO-treated group was called relative growth rate, and the growth inhibition was calculated as (1−R)*100.

LS174T xenografts = LS174T xenografts in SCID mice; type: in vivo, mouse; conditions: BAY-876 3 mg/kg/day, DBI-1 40 mg/kg/day
Method: In vivo evaluation of anti-cancer activity in LS174T xenografts—The mouse studies were conducted with the approval of the University of Kentucky Institutional Animal Care and Use Committee (2020-3531). All methods were carried out in compliance with the relevant guidelines and regulations according to protocols. The LS174T cells in exponential growth phase were trypsinized and resuspended in 50% Matrigel (Corning, Glendale, Arizona). Cells (1.2×10^6) were subcutaneously injected on the lower flanks of severe combined immunodeficient mice. The tumor volumes were calculated based on the formula Length×width^2/2. When tumors reached an average volume of 100 mm^3, the mice were divided into control and treatment groups (3 male and 3 female mice/group, two tumors on each mouse). After tumors were established, BAY-876 was given to the mice by gavage feeding to the BAY-876 group at the dose of 3 mg/kg/day. DBI-1 was daily intraperitoneally (i.p.) administered to the DBI-1 group at dose of 40 mg/kg mouse body weight. Mice in the combination treatment group were administered both oral BAY-876 at the dose of 3 mg/kg/day and i.p. DBI-1 at dose of 40 mg/kg mouse body weight. Tumors and mouse weights were measured every three days and the experiment was stopped at day 12. Tumors were isolated and fixed in 10% neutral buffered formalin. Tumor sections were analyzed with H&E and Ki-67 staining at Markey Cancer Center's Biospecimen Procurement and Translational Pathology Shared Resource Facility (BPTP SRF).

LS174T cells = test: Cell proliferation inhibition assay, LS174T; type: cell-based; conditions: for combinational effect with BAY-876 on proliferation of LS174T cells: in combination with BAY-876
Method: as §1
(§2) Cell proliferation inhibition assay was conducted according to a previous report (48). The cells were split into 12-well plates at a density of 40,000 cells per well in 1 mL of culture medium and were cultured overnight at 37° C. Either 1 μL of the compounds dissolved at 10 mmol/L in DMSO or the vehicle control (DMSO) was added to the cells. After 5 days, removed the medium, and 200 μL of 0.25% trypsin was added. The cells were resuspended in phosphate-buffered saline (PBS) and counted with Vi-CELL XR 2.03 (Beckman Coulter, Inc. USA). The ratio R of the number of viable cells in the compound treatment group to the number of viable cells in the DMSO treatment group was defined as the relative growth rate, and the growth inhibition rate was calculated as (1−R)*100.

HCT116 cells = test: Cell proliferation inhibition assay, HCT116; type: cell-based; conditions: for inhibition at 1 µM / inhibition at 3 µM / inhibition at 10 µM: Homo sapiens; for inhibition at 1 µM: HCT-116, 1 μM; for inhibition at 3 µM: HCT-116, 3 μM; for inhibition at 10 µM: HCT-116, 10 μM
Method: as §1, §2

OCV-8 Cell = test: OCV-8 cell inhibition; type: cell-based; conditions: read-out: OCV-8 Cell Inhibiton; for inhibition at 0.3 µM: 300 nM
[1] = cited from earlier work

Compound	inhibition at 3 µM (HCT116 cells) [%]	inhibition at 10 µM (HCT116 cells) [%]	also measured
CN(C)CCN(C)CCCCOc1ccc2c(=O)c(-c3ccc(Br)cc3)coc2c1 [DBI-1, 3-(4-Bromophenyl)-7-(4-((2-(dimethylamino)ethyl)(methyl)amino)butoxy)-4H-chromen-4-one]	–	–	IC50 (Pt2377 cells): 1.4 µM; toxicity based on mice body weight growth rate (LS174T xenografts): No significant toxicity; IC50 (LS174T cells; Homo sapiens, LS174T, 120 h, 5 days, viable cells counted): 1.2 µM; inhibition at 1 µM (HCT116 cells): 45%; inhibition at 0.3 µM (OCV-8 Cell): 57%; inhibition at 1 µM (OCV-8 Cell): 96%
Cc1nc(-c2nc(-c3ccc(OC(F)(F)F)cc3)no2)nn1Cc1cccc(N2CCC(S(C)(=O)=O)CC2)c1 [IACS-010759]	–	–	tolerability in preclinical models ([1]; 25 mg/kg/day): not tolerated; antitumor effect in preclinical models ([1]; 5-10 mg/kg/day): tumor regression
CN(C)C(=N)N=C(N)N [Metformin]	–	–	combinational effect with BAY-876 on proliferation of LS174T cells (LS174T cells): synergistical effects with BAY-876
C=C(C)[C@H]1Cc2c(ccc3c2O[C@@H]2COc4cc(OC)c(OC)cc4[C@@H]2C3=O)O1 [Rotenone]	–	–	combinational effect with BAY-876 on proliferation of LS174T cells (LS174T cells): synergistical effects with BAY-876
O=c1c(-c2ccc(F)cc2)coc2cc(OCCN3CCNCC3)ccc12 [WZY-1-31]	0	89	–
O=c1c(-c2ccc(F)cc2)coc2cc(OCCN3CCN(CCO)CC3)ccc12 [WZY-1-33]	0	35	–
O=c1c(-c2ccc(Cl)cc2)coc2cc(OCCN3CCNCC3)ccc12 [WZY-1-43]	92	93	inhibition at 0.3 µM (OCV-8 Cell): 31%; inhibition at 1 µM (OCV-8 Cell): 97%
O=c1c(-c2ccc(Br)cc2)coc2cc(OCCN3CCNCC3)ccc12 [WZY-1-45]	94	93	inhibition at 0.3 µM (OCV-8 Cell): 43%; inhibition at 1 µM (OCV-8 Cell): 97%
O=c1c(-c2ccc(Cl)cc2)coc2cc(OCCN3CCN(CCO)CC3)ccc12 [WZY-1-47]	50	94	–
O=c1c(-c2ccc(Br)cc2)coc2cc(OCCN3CCN(CCO)CC3)ccc12 [WZY-1-49]	80	94	–
COc1ccc(-c2coc3cc(OCCN4CCNCC4)ccc3c2=O)cc1 [WZY-1-59]	0	92	–
COc1ccc(-c2coc3cc(OCCN4CCN(CCO)CC4)ccc3c2=O)cc1 [WZY-1-61]	0	52	–
O=c1c(-c2ccccc2F)coc2cc(OCCN3CCN(CCO)CC3)ccc12 [WZY-1-67]	0	0	–
O=c1c(-c2ccc(Br)cc2)coc2cc(OCCN3CCOCC3)ccc12 [WZY-1-77]	61.4	–	–
O=c1c(-c2ccc(Br)cc2)coc2cc(OCCCCN3CCNCC3)ccc12 [WZY-1-91]	99.9	–	inhibition at 0.3 µM (OCV-8 Cell): 34%; inhibition at 1 µM (OCV-8 Cell): 94%
O=c1c(-c2ccc(Br)cc2)coc2cc(OCCCCN3CCN(CCO)CC3)ccc12 [WZY-1-95]	99	–	inhibition at 0.3 µM (OCV-8 Cell): 30%; inhibition at 1 µM (OCV-8 Cell): 93%
O=c1c(-c2ccc(Br)cc2)coc2cc(OCCCCCCCCN3CCN(CCO)CC3)ccc12 [WZY-1-97]	99.7	–	inhibition at 0.3 µM (OCV-8 Cell): 39%; inhibition at 1 µM (OCV-8 Cell): 96%

Compound	inhibition at 3 µM (HCT116 cells) [%]	inhibition at 10 µM (HCT116 cells) [%]	also measured
O=c1c(-c2ccc(Br)cc2)coc2cc(OCCCCCCCCN3CCOCC3)ccc12 [WZY-1-101]	50.6	–	–
O=c1c(-c2ccc(Br)cc2)coc2cc(OCCCCCCCCN3CCSCC3)ccc12 [WZY-1-103]	42.6	–	–
O=c1c(-c2ccc(Br)cc2)coc2cc(OCCCCN3CCOCC3)ccc12 [WZY-1-113]	62.7	–	–
O=c1c(-c2ccc(Cl)cc2Cl)coc2cc(OCCN3CCNCC3)ccc12 [WZY-1-123]	67.1	–	–
O=c1c(-c2ccc(Cl)cc2Cl)coc2cc(OCCN3CCN(CCO)CC3)ccc12 [WZY-1-125]	43.1	–	–
O=c1c(-c2ccccc2Cl)coc2cc(OCCN3CCN(CCO)CC3)ccc12 [WZY-1-129]	13	–	–
O=c1c(-c2ccc(Br)cc2)coc2cc(OCCn3ccnc3)ccc12 [WZY-1-131]	22	–	–
O=c1c(-c2ccc(Br)cc2)coc2cc(OCCCCn3ccnc3)ccc12 [WZY-1-139]	58.7	–	–
O=c1c(-c2ccc(Br)cc2)coc2cc(OCCCCn3cccn3)ccc12 [WZY-1-141]	63.9	–	–
O=c1c(-c2ccc(Br)cc2)coc2cc(OCCCCCCCCn3ccnc3)ccc12 [WZY-1-143]	61.2	–	–
O=c1c(-c2ccc(Cl)cc2)coc2cc(OCCN3CCOCC3)ccc12 [WZY-1-149]	51.4	–	–
O=c1c(-c2ccc(Br)cc2)coc2cc(OCCCCN3CCOCC3)ccc12 [WZY-1-155]	–	–	HCT116 Cells Proliferation Inhibition % (HCT116 cells; 3 μM): 65.3%
CN(C)CCN(C)CCOc1ccc2c(=O)c(-c3ccc(Br)cc3)coc2c1 [WZY-1-193]	–	–	inhibition at 1 µM (HCT116 cells): 26%; inhibition at 0.3 µM (OCV-8 Cell): 57%; inhibition at 1 µM (OCV-8 Cell): 87%
O=c1c(-c2ccc(F)c(F)c2)coc2cc(OCCN3CCNCC3)ccc12 [XDQ-1-9]	34	94	–
O=c1c(-c2ccc(F)c(F)c2)coc2cc(OCCN3CCN(CCO)CC3)ccc12 [XDQ-1-13]	10	61	–
O=c1c(-c2ccc(Cl)c(Cl)c2)coc2cc(OCCN3CCN(CCO)CC3)ccc12 [XDQ-1-19]	95	94	inhibition at 0.3 µM (OCV-8 Cell): 60%; inhibition at 1 µM (OCV-8 Cell): 99%
O=c1c(-c2ccc(Cl)c(Cl)c2)coc2cc(OCCN3CCNCC3)ccc12 [XDQ-1-25]	93	92.5	inhibition at 0.3 µM (OCV-8 Cell): 72%; inhibition at 1 µM (OCV-8 Cell): 99%
